Measurements reported in patent US10226452B2, “Benzoxazolone derivatives as acid ceramidase inhibitors, and their use as medicaments” (FONDAZIONE ISTITUTO ITALIANO DI TECNOLOGIA, priority 2014, dated 2019).

Tests used:
MeWo cells = experiment: ceramide levels in MeWo human melanoma cells; assay type: cell-based; conditions: 25 μM
Method: (§1) Specifically, FIG. 1 evidences the effects of compound of Example 7 or vehicle (0.1% DMSO in DMEM) on AC activity and ceramide levels in A375 (left panel) or MeWo (right panel) human melanoma cell lines. (A-B) Intact cells were treated with compound of Example 7 (25 μM) or vehicle and AC activity was measured 30 minutes or 3 hours later in cell lysates. (B) Intact cells were exposed to compound of Example 7 (25 μM) for 2 hours or 24 hours and medium chain ceramides (C-D), long chain ceramides (E-F) and dihydroceramides (G-H) were quantified. Results are expressed as mean±s.e.m. (n=3). *p<0.05, **p<0.01, ***p<0.001 vs vehicle, two-way ANOVA followed by Dunnet.
Lipids were extracted from mouse tissue lysate with a chloroform/MeOH mixture (2:1 v/v, 3 mL) containing internal standards. The organic phase was collected, dried under nitrogen, and dissolved in chloroform/MeOH (1:3 v/v) for LC-MS analyses. Ceramides, sphingosine and sphinganine were analyzed by LC-MS/MS, using a Waters Acquity UPLC coupled with a Waters Xevo TQMS and interfaced with ESI. Separation was done on a Waters Acquity BEH C18 1.7 μm column (2.1×50 mm) at 60° C. A step gradient of 0.1% formic acid in acetonitrile/water (20:80 v/v) as solvent A and 0.1 formic acid in acetonitrile/isopropyl alcohol (20:80 v/v) as solvent B was applied at a flow rate of 0.4 mL/min. Detection was in the positive ionization mode. Capillary voltage was 3.5 kV and cone voltage was 25 V. The source temperature and desolvation temperatures were set at 120° C. and 600° C. respectively. […]
Tissue-derived ceramides were identified by comparison of their LC retention times and MS^2 fragmentation patterns with those of authentic standards (Avanti Polar Lipids). Extracted ion chromatograms were used to quantify myristoyl ceramide (C14:0, m/z 510.5>492.5>264.3), palmitoyl ceramide (C16:0, m/z 538.5>520.3>264.3), stearoyl ceramide (C18:0 m/z 566.5>548.3>264.3), lignoceroyl ceramide (C24:0 m/z 650.5>632.3>264.3), nervonoyl ceramide (C24:1 m/z 648.5>630.3>264.3) and using lauroyl ceramide standard (m/z 482.5>464.5>264.3). […]

AC = AC (Homo sapiens (Human), UniProt Q13510); experiment: AC activity in A375 human melanoma cells; assay type: cell-based; conditions: 25 μM, evident at 30 minutes, lasted up to 3 hours
Sequence of AC (Q13510 22-142): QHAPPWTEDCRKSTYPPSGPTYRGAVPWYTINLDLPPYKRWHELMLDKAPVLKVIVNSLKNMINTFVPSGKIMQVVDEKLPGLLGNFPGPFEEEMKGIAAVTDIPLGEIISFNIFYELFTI
Sequence of AC (Q13510 143-395): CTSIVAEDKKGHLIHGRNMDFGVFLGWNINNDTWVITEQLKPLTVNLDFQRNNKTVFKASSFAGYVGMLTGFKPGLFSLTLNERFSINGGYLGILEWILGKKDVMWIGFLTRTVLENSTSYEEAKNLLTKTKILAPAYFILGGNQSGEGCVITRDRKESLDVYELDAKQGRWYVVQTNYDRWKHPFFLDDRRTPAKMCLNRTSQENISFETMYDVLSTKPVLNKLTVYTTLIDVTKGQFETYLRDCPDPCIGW
Method: as §1
hAC protein preparation (10 μg) was preincubated with inhibitors (final DMSO concentration 1%) in assay buffer (100 mM sodium phosphate, 0.1% Nonidet P-40, 150 mM NaCl, 3 mM DTT, 100 mM sodium citrate, pH 4.5) for 30 min at 37° C. Reactions were started by the addition of 50 μM N-lauroyl ceramide (Nu-Chek Prep, Elysian, Minn.) and carried on for 30 min at 37° C. […] The organic phases were collected, dried under nitrogen and analyzed by UPLC/MS (Acquity, Waters). […]
The [M−H]^− ion was monitored in the selected-ion monitoring mode (m/z values: lauric acid 199, 11-lauroleic acid 197.35). […] Inhibition of AC activity was calculated as reduction of lauric acid in the samples compared to vehicle controls. […]

cathepsin B (h) = cathepsin B (h) (Homo sapiens (Human), UniProt P07858); experiment: Cerep enzyme inhibition screen: cathepsin B; assay type: biochemical; conditions: mean of two determinations, read-out: Inhibitory activity (% Inh. at 10 μM), mean
Text: (§2) Compound of Example 25 falling in both Formula (I) and (Ia) was selected to be tested for off-target effects on a set of enzymes that include proteases (aspartic, cysteine, and serine), cyclooxygenases as well as lipoxygenases and group IV phospholipase (sPLA2) (Table 3). [table]

sPLA2 (h) (type V) = sPLA2 (h) (type V) (Homo sapiens (Human), UniProt P39877); experiment: Cerep enzyme inhibition screen: sPLA2; assay type: biochemical; conditions: mean of two determinations, read-out: Inhibitory activity (% Inh. at 10 μM), mean
Sequence of sPLA2 (h) (type V) (P39877 21-138): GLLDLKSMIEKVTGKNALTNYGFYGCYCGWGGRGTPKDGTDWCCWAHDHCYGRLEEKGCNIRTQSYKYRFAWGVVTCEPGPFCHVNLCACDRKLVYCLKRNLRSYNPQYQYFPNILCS
Text: as §2

MAG levels = MAG levels in mouse tissues; assay type: in vivo; conditions: mice; 10 mg-kg-1 intraperitoneal; after 3 hours
Method: Specifically, the levels of MAGs were quantified after 3 hours after intraperitoneal injection of compound of Example 25 (10 mg-kg-1). Specifically, levels of 16:0 MAG, 18:0 MAG, 18:1 MAG, 22:4 MAG, 22:6 MAG were measured in the brain (a); levels of 16:0 MAG, 18:0 MAG, 18:1 MAG, 22:4 MAG were measured in the liver (b), in fat (c) and in the heart (d). Results are expressed as mean±s.e.m. (n=5).
We homogenized tissue samples (20-30 mg) in methanol (1 mL) containing deuterium-labeled 2-AG (500 pmol) as internal standard (Cayman, Ann Arbor, Mich.). We extracted lipids with chloroform (2 mL) and water (1 mL). The organic phases were dried in a stream of N2, reconstituted in chloroform (2 mL) and fractionated by open-bed silica gel column chromatography as described. The eluded fraction containing 2-AG and anandamide were dried under N2, and residues were suspended in chloroform/methanol (1:3, vol:vol; 100 μL). Analyses were conducted using a liquid chromatography mass spectrometry (LC-MS) apparatus consisting of an Agilent 1100 system and 1946D mass spectrometer detector equipped with ESI interface (Agilent Technologies, Santa Clara, Calif., USA).

cathepsin D (h) = cathepsin D (h) (Homo sapiens (Human), UniProt P07339); experiment: Cerep enzyme inhibition screen: cathepsin D; assay type: biochemical; conditions: mean of two determinations, read-out: Inhibitory activity (% Inh. at 10 μM), mean
Sequence of cathepsin D (h) (P07339 65-412): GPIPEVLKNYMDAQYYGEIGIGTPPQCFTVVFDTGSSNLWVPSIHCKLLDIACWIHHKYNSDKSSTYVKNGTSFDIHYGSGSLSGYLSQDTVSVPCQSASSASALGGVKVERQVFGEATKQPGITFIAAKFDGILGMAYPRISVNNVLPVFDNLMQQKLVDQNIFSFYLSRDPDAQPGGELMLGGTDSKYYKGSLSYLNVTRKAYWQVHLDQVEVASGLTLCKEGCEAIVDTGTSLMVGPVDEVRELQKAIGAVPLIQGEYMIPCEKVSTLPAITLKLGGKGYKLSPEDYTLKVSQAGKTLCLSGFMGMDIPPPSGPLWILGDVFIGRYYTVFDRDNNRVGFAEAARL
Text: as §2

caspase-3 (h) = caspase-3 (h) (Homo sapiens (Human), UniProt P42574); experiment: Cerep enzyme inhibition screen: caspase-3; assay type: biochemical; conditions: mean of two determinations, read-out: Inhibitory activity (% Inh. at 10 μM), mean
Sequence of caspase-3 (h) (P42574 29-175): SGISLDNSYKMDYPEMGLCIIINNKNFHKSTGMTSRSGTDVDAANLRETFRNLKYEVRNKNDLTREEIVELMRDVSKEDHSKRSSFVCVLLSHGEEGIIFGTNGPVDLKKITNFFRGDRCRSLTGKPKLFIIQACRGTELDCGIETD
Sequence of caspase-3 (h) (P42574 176-277): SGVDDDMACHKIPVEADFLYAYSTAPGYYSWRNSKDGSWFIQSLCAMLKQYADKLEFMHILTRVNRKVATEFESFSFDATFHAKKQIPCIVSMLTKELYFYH
Text: as §2

Row | SMILES | duration of effects on ceramide levels (MeWo cells; MeWo cells (high AC expression)) | di-hydro ceramide species levels (MeWo cells; MeWo cells) | ceramide species levels (cer(d18:1/14:0), cer(d18:1/16:0), cer(d18:1/18:0), cer(d18:1/24:1)) (MeWo cells; MeWo cells, LC/MS) | AC activity (AC) | inhibition at 10 µM (cathepsin B (h)) | inhibition at 10 µM (sPLA2 (h) (type V)) | levels of the most representative MAGs in brain, liver, fat and heart (MAG levels) | inhibition at 10 µM (cathepsin D (h)) | inhibition at 10 µM (caspase-3 (h))
1 | O=C(NCCCCc1ccccc1)n1c(=O)oc2cc(Br)ccc21 [Example 7, 6-Bromo-2-oxo-N-(4-phenylbutyl)-1,3-benzoxazole-3-carboxamide] | recovered the initial phenotype after 24 hours | significant increase in all di-hydro ceramide species analyzed | intracellular accumulation of various ceramide species | reduction in AC activity | – | – | – | – | –
2 | O=C(NCCCCc1ccccc1)n1c(=O)oc2cc(-c3ccc(F)cc3)ccc21 [Example 25, 6-(4-Fluorophenyl)-2-oxo-N-(4-phenylbutyl)-1,3-benzoxazole-3-carboxamide] | – | – | – | – | 9.9% | 1.1% | remained unchanged | 67% | 1.9%
